ChEMBL document CHEMBL1201862, “PubChem BioAssay data set” (2004)
Where “and” joins values, the source holds several entries; their conditions need not be identical. Equal values may be shown once.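 Growth conditions: 96-well plates. Treatment: test compound, 48 hours, 5 concentrations. Analysis: linear interpolation between bracketing concentrations; unreached endpoints set to highest concentration. GI50 = concentration required for 50% inhibition of growth.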 Calls of active or inactive are those of the source. Rule as the data show it: active = GI50 up to about 1.1 µM and inactive = higher.

Legend:
Assay in all cases: NCI-60 cell line screen, 48 h
786-0 = test system: 786-0
A549 = test system: A549
ACHN = test system: ACHN
COLO 205 = test system: COLO 205
DMS-114 = test system: DMS-114
HL-60 = test system: HL-60
K562 = test system: K562
LXFL 529 = test system: LXFL 529
M14 = test system: M14
MDA-MB-231 = test system: MDA-MB-231
MDA-MB-435 = test system: MDA-MB-435
NCI-H23 = test system: NCI-H23
NCI-H522 = test system: NCI-H522
OVCAR-4 = test system: OVCAR-4
SK-MEL-28 = test system: SK-MEL-28
SK-MEL-2 = test system: SK-MEL-2
SK-OV-3 = test system: SK-OV-3
SW-620 = test system: SW-620
T47D = test system: T47D
UO-31 = test system: UO-31

| Structure (SMILES) | GI50 (786-0) | GI50 (A549) | GI50 (ACHN) | GI50 (COLO 205) | GI50 (DMS-114) | GI50 (HL-60) | GI50 (K562) | GI50 (LXFL 529) | GI50 (M14) | GI50 (MDA-MB-231) | GI50 (MDA-MB-435) | GI50 (NCI-H23) | GI50 (NCI-H522) | GI50 (OVCAR-4) | GI50 (SK-MEL-28) | GI50 (SK-MEL-2) | GI50 (SK-OV-3) | GI50 (SW-620) | GI50 (T47D) | GI50 (UO-31) |
| --- | --- | --- | --- | --- | --- | --- | --- | --- | --- | --- | --- | --- | --- | --- | --- | --- | --- | --- | --- | --- |
| C/C(=N\N)C(CN1CCCCC1)C(c1ccccc1)c1c(O)c2ccccc2oc1=O (configuration not stated) | > 100 µM (inactive) | > 100 µM (inactive) | > 100 µM (inactive) | > 100 µM (inactive) | > 100 µM (inactive) | > 71 µM (inactive) | > 100 µM (inactive) | > 100 µM (inactive) | > 100 µM (inactive) | > 100 µM (inactive) | > 100 µM (inactive) | > 100 µM (inactive) | > 100 µM (inactive) | > 100 µM (inactive) | > 100 µM (inactive) | > 100 µM (inactive) | > 100 µM (inactive) | > 100 µM (inactive) | > 100 µM (inactive) | > 67.3 µM (inactive) |
| Cc1oc2c(C)c3oc(=O)cc(C)c3cc2c1CN | 39.9 µM (inactive) | 40.3 µM (inactive) | 27.7 µM (inactive) | 33.1 µM (inactive) | 41.2 µM (inactive) | 39 µM (inactive) | 37.6 µM (inactive) | 37.5 µM (inactive) | 38.5 µM (inactive) | – | – | 45.8 µM (inactive) | 42.4 µM (inactive) | 40.6 µM (inactive) | 71 µM (inactive) | 46.1 µM (inactive) | 23.7 µM (inactive) | 19.5 µM (inactive) | – | 30.1 µM (inactive) |
| CC[C@@]1(OC(=O)C(N)CCC(=O)O)C(=O)OCc2c1cc1n(c2=O)Cc2cc3ccccc3nc2-1 (some centres not stated) | 0.0206 µM (active) | 0.0348 µM (active) | 0.0187 µM (active) | 0.667 µM (active) | 0.0493 µM (active) | 0.0208 µM (active) | 0.314 µM (active) | 1.38 µM (inactive) | 0.0347 µM (active) | 1.63 µM (inactive) | 0.219 µM (active) | 0.0345 µM (active) | 0.0536 µM (active) | 1.24 µM (inactive) | 1.35 µM (inactive) | 1.12 µM (active) | 0.0553 µM (active) | 0.179 µM (active) | 0.0267 µM (active) | 0.0493 µM (active) |
| O=C1C(c2ccccc2)=C(O)c2cccc3cccc1c23 | > 100 µM (inactive) | > 100 µM (inactive) | > 100 µM (inactive) | > 100 µM (inactive) | > 100 µM (inactive) | > 100 µM (inactive) | > 100 µM (inactive) | > 100 µM (inactive) | > 100 µM (inactive) | – | – | > 100 µM (inactive) | > 100 µM (inactive) | > 100 µM (inactive) | > 100 µM (inactive) | > 100 µM (inactive) | > 100 µM (inactive) | > 100 µM (inactive) | – | > 100 µM (inactive) |
| O=C(NC1C(=O)NNC1c1ccccc1Cl)c1ccccc1 (configuration not stated) | > 100 µM (inactive) | > 100 µM (inactive) | > 100 µM (inactive) | > 100 µM (inactive) | > 100 µM (inactive) | > 100 µM (inactive) | 39.4 µM (inactive) | > 100 µM (inactive) | > 100 µM (inactive) | – | – | > 100 µM (inactive) | 91.4 µM (inactive) | > 100 µM (inactive) | > 100 µM (inactive) | > 100 µM (inactive) | > 100 µM (inactive) | > 100 µM (inactive) | – | > 100 µM (inactive) |
| Cc1nc(Nc2nnc(-c3cc([N+](=O)[O-])cc([N+](=O)[O-])c3C)o2)sc1C(=O)CC(=O)Cc1nc2ccc(Cl)cc2nc1O | – | > 100 µM (inactive) | > 100 µM (inactive) | > 100 µM (inactive) | > 100 µM (inactive) | > 100 µM (inactive) | 41.8 µM (inactive) | > 100 µM (inactive) | > 100 µM (inactive) | – | – | > 100 µM (inactive) | 61.4 µM (inactive) | > 100 µM (inactive) | > 100 µM (inactive) | > 100 µM (inactive) | > 100 µM (inactive) | > 100 µM (inactive) | – | > 100 µM (inactive) |
| O=C(c1ccco1)N(C(=S)N1CCN(c2ccccc2)CC1)C1CCCCC1 | > 100 µM (inactive) | 67.1 µM (inactive) | > 100 µM (inactive) | 45 µM (inactive) | 38.7 µM (inactive) | > 100 µM (inactive) | > 100 µM (inactive) | 95.5 µM (inactive) | 98.4 µM (inactive) | – | – | > 100 µM (inactive) | > 100 µM (inactive) | > 100 µM (inactive) | > 10 µM (inactive) | > 100 µM (inactive) | > 100 µM (inactive) | > 100 µM (inactive) | – | 33.3 µM (inactive) |
| OC(CC1SCCCS1)c1ccccc1 (configuration not stated) | > 100 µM (inactive) | > 100 µM (inactive) | > 100 µM (inactive) | > 100 µM (inactive) | > 100 µM (inactive) | > 100 µM (inactive) | > 100 µM (inactive) | > 100 µM (inactive) | > 100 µM (inactive) | – | – | > 100 µM (inactive) | 61.7 µM (inactive) | > 100 µM (inactive) | – | > 100 µM (inactive) | > 100 µM (inactive) | > 100 µM (inactive) | – | > 100 µM (inactive) |
| Cc1cc(N(CCC#N)CCC#N)ccc1/C=C(\NC(=O)/C=C/c1ccccc1)C(=O)NN | 30.6 µM (inactive) | > 100 µM (inactive) | > 80.9 µM (inactive) | > 100 µM (inactive) | > 100 µM (inactive) | > 100 µM (inactive) | > 100 µM (inactive) | > 100 µM (inactive) | > 100 µM (inactive) | 32.4 µM (inactive) | > 100 µM (inactive) | > 65.8 µM (inactive) | > 56.1 µM (inactive) | > 100 µM (inactive) | > 100 µM (inactive) | > 61.7 µM (inactive) | 31 µM (inactive) | > 100 µM (inactive) | 55 µM (inactive) | > 100 µM (inactive) |
| C=C1CCCC2[C@](C)(CC3=C(O)C(=O)C=C(OC)C3=O)[C@@H](C)CC[C@]12C (some centres not stated) | 2.64 µM (inactive) | 2.86 µM (inactive) | 4.06 µM (inactive) | 7.35 µM (inactive) | 1.99 µM (inactive) | 2.4 µM (inactive) | 4.07 µM (inactive) | 6.04 µM (inactive) | 1.81 µM (inactive) | – | – | 3.05 µM (inactive) | 6.82 µM (inactive) | 5.65 µM (inactive) | 3.99 µM (inactive) | 2.45 µM (inactive) | 12.6 µM (inactive) | 3.01 µM (inactive) | – | – |
| CC#CC#C/C=C1\C=CC2(OC=CC2OC(C)=O)O1 (configuration not stated) | – | 35.2 µM (inactive) and 32.7 µM (inactive) | 10.4 µM (inactive) | 15 µM (inactive) and 16.4 µM (inactive) | 18.2 µM (inactive) | 20.2 µM (inactive) and 10.4 µM (inactive) | 25.6 µM (inactive) and 19 µM (inactive) | 16.3 µM (inactive) | 29.8 µM (inactive) and 18.4 µM (inactive) | 17.8 µM (inactive) | 29.4 µM (inactive) | 15 µM (inactive) and 11 µM (inactive) | – | – | – | – | > 100 µM (inactive) and > 89.1 µM (inactive) | 24.8 µM (inactive) and 18.8 µM (inactive) | 24.1 µM (inactive) | 15.5 µM (inactive) and 18.4 µM (inactive) |
| N#C/C(=C\c1ccc(O)c(O)c1)C(N)=O | 20.6 µM (inactive) | 46.2 µM (inactive) | 41.6 µM (inactive) | 58.1 µM (inactive) | 22.7 µM (inactive) | 10.1 µM (inactive) | 34.6 µM (inactive) | 40.7 µM (inactive) | 55.6 µM (inactive) | – | – | 34 µM (inactive) | 9.2 µM (inactive) | 67.1 µM (inactive) | 41 µM (inactive) | > 100 µM (inactive) | 71.4 µM (inactive) | 43.9 µM (inactive) | – | 31.8 µM (inactive) |
| C#C[C@]1(O)CC[C@H]2[C@@H]3CCc4cc(O)ccc4[C@H]3CC[C@@]21C [ETHINYL ESTRADIOL] | 34.6 µM (inactive) | 29.1 µM (inactive) | 78.7 µM (inactive) | 31.3 µM (inactive) | 16.3 µM (inactive) | 21.7 µM (inactive) | – | 21.5 µM (inactive) | – | – | – | 23.7 µM (inactive) | 10.9 µM (inactive) | – | 65.2 µM (inactive) | 24.5 µM (inactive) | 24.4 µM (inactive) | 16.1 µM (inactive) | – | > 10 µM (inactive) |
